Measurements from patent publication US10221174B2, “N-(phenylsulfonyl)benzamides and related compounds as BCL-2 inhibitors” (THE REGENTS OF THE UNIVERSITY OF MICHIGAN, priority 2016, dated 2019).
pIC50: −log10 of the molar value.

Tests used:
Bcl-2 = Bcl-2 (Homo sapiens (Human), UniProt P10415)
Description: (§1) Fluorescence polarization values were measured using the Infinite M-1000 plate reader (Tecan U.S., Research Triangle Park, N.C.) in Microfluor 1 96-well, black, round-bottom plates (Thermo Scientific). […] Plates were mixed and incubated at room temperature for 1 hour with gentle shaking to assure equilibrium. […] Equilibrium dissociation constants (Kd) were then calculated by fitting the sigmoidal dose-dependent FP increases as a function of protein concentrations using Graphpad Prism 5.0 software (Graphpad Software, San Diego, Calif.).
(§2) Mixtures of 5 μl of the tested inhibitors in DMSO and 120 μl of pre-incubated protein/probe complexes in the assay buffer were added into assay plates and incubated at room temperature for 2 hours with gentle shaking. […] FP values were measured as described above. IC50 values were determined by nonlinear regression fitting of the competition curves.

RS4;11 cells = test: RS4;11 cell viability, CCK-8 assay; type: cell-based; settings: Homo sapiens, RS4-11, 96 h, CCK-8, 4 days, read-out: RS4, 11 IC50 (Bcl-2 dependent)
Description: RS4;11 cells were obtained from American Type Culture Collection (ATCC). They were used within three months of thawing fresh vials. Cells were maintained in the recommended culture medium with 10% FBS at 37° C. and an atmosphere of 5% CO2.
The effect of representative Compounds of the Disclosure on cell viability was determined using Cell Counting Kit-8 (CCK-8) assay (Dojindo, Rockville, Md.) according to the manufacturer's instructions. 200 μL of a RS4;11 cell suspension (10000 cells/well) in culture medium were seeded into 96-well plates and cultured overnight. Each tested compound was serially diluted in culture medium, and 20 μL of the compound dilution was added to the corresponding well of the cell plate. After the addition of the tested compound, the cells were incubated at 37° C. in an atmosphere of 5% CO2 for 4 days. At the end of 4 days, 10 μL of CCK-8 solution was added to each well of the plate and incubated for 1-4 hours. The plates were read at 450 nm on the microplate spectrophotometer (Epoch2, BioTek). The readings were normalized to the vehicle cells, and the IC50 was calculated by nonlinear regression analysis using GraphPad Prism 5 software.

Bcl-xL = Bcl-xL (Homo sapiens (Human), UniProt Q07817); test: Fluorescence polarization competitive binding assay, Bcl-xL; settings: FP competition, 10 nM Bcl-xL, 2 nM Flu-BAK probe; read-out: Inhibitory activity IC50 Bcl-xL
Description: as §1, §2

MV4;11 cell line = test: MV4;11 inhibition; type: cell-based; settings: Homo sapiens, MV4-11

Bcl-xL, sequence (Q07817 whole entry): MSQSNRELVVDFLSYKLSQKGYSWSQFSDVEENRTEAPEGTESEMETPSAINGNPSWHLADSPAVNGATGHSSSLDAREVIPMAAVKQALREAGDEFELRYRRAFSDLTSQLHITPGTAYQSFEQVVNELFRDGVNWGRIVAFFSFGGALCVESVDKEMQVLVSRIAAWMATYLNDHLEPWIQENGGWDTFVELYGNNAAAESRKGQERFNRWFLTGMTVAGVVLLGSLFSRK
Bcl-2, sequence (P10415 whole entry): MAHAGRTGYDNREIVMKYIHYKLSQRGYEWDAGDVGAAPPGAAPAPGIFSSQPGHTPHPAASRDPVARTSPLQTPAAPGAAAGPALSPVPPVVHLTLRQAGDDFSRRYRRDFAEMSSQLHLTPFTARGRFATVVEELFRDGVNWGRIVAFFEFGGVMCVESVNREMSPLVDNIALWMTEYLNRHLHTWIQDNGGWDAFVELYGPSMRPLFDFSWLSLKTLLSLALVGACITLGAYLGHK

Row | pIC50 (RS4;11 cells) | pIC50 (MV4;11 cell line) | SMILES | pIC50 (Bcl-2) | pIC50 (Bcl-xL)
1 | 8.28 | 7.77 | O=C(NS(=O)(=O)c1ccc(NC[C@H]2COCCO2)c([N+](=O)[O-])c1)c1ncc(N2CCN(CC3=C(c4ccc(Cl)cc4)CC4(CCC4)CC3)CC2)cc1Oc1cnc2[nH]ccc2c1 [compound 27, (S)-N-((4-(((1,4-dioxan-2-yl)methyl)amino)-3-nitrophenyl)sulfonyl)-3-((1H-pyrrolo[2,3-b]pyridin-5-yl)oxy)-5-(4-((6-(4-chlorophenyl)spiro[3.5]non-6-en-7-yl)methyl)piperazin-1-yl)picolinamide] | – | –
2 | 7.92 | 7.32 | O=C(NS(=O)(=O)c1cc(F)c(NCC2CCOCC2)c([N+](=O)[O-])c1)c1ccc(N2CCN(CC3=C(c4ccc(Cl)cc4)CC4(CCC4)CC3)CC2)cc1Oc1cnc2[nH]ccc2c1 [compound 29, 2-((1H-pyrrolo[2,3-b]pyridin-5-yl)oxy)-4-(4-((6-(4-chlorophenyl)spiro[3.5]non-6-en-7-yl)methyl)piperazin-1-yl)-N-((3-fluoro-5-nitro-4-(((tetrahydro-2H-pyran-4-yl)methyl)amino)phenyl)sulfonyl)benzamide] | – | –
3 | 5.96 | 5.29 | O=C(NS(=O)(=O)c1cc([N+](=O)[O-])n(CC2CCOCC2)c1)c1ccc(N2CCN(CC3=C(c4ccc(Cl)cc4)CC4(CCC4)CC3)CC2)cc1Oc1cnc2[nH]ccc2c1 [Cpd. No. 25, 2-((1H-pyrrolo[2,3-b]pyridin-5-yl)oxy)-4-(4-((6-(4-chlorophenyl)spiro[3.5]non-6-en-7-yl)methyl)piperazin-1-yl)-N-((5-nitro-1-((tetrahydro-2H-pyran-4-yl)methyl)-1H-pyrrol-3-yl)sulfonyl)benzamide] | – | –
4 | 7.72 | 7.26 | O=C(NS(=O)(=O)C1=CC2C(=O)N(C3CCOCC3)CC2C([N+](=O)[O-])=C1)c1ccc(N2CCN(CC3=C(c4ccc(Cl)cc4)CC4(CCC4)CC3)CC2)cc1Oc1cnc2[nH]ccc2c1 (stereo not drawn) [compound 23, 2-((1H-pyrrolo[2,3-b]pyridin-5-yl)oxy)-4-(4-((6-(4-chlorophenyl)spiro[3.5]non-6-en-7-yl)methyl)piperazin-1-yl)-N-((7-nitro-3-oxo-2-(tetrahydro-2H-pyran-4-yl)-2,3,3a,7a-tetrahydro-1H-isoindol-5-yl)sulfonyl)benzamide] | – | –
5 | 7.89 | 7.35 | O=C(NS(=O)(=O)c1ccc(NC[C@H]2COCCO2)c([N+](=O)[O-])c1)c1ccc(N2CCN(CC3=C(c4ccc(Cl)cc4)CC4(CCC4)CC3)CC2)c(F)c1Oc1cnc2[nH]ccc2c1 [compound 36, (S)-N-((4-(((1,4-dioxan-2-yl)methyl)amino)-3-nitrophenyl)sulfonyl)-2-((1H-pyrrolo[2,3-b]pyridin-5-yl)oxy)-4-(4-((6-(4-chlorophenyl)spiro[3.5]non-6-en-7-yl)methyl)piperazin-1-yl)-3-fluorobenzamide] | – | –
6 | 6.21 | 5.44 | COCCn1cc(S(=O)(=O)NC(=O)c2ccc(N3CCN(CC4=C(c5ccc(Cl)cc5)CC5(CCC5)CC4)CC3)cc2Oc2cnc3[nH]ccc3c2)cc1[N+](=O)[O-] [compound 35, 2-((1H-pyrrolo[2,3-b]pyridin-5-yl)oxy)-4-(4-((6-(4-chlorophenyl)spiro[3.5]non-6-en-7-yl)methyl)piperazin-1-yl)-N-((1-(2-methoxyethyl)-5-nitro-1H-pyrrol-3-yl)sulfonyl)benzamide] | – | –
7 | 7.28 | 7.74 | O=C(NS(=O)(=O)c1ccc(NCC2CCOCC2)c([N+](=O)[O-])c1)c1c(F)cc(N2CCN(CC3=C(c4ccc(Cl)cc4)CC4(CCC4)CC3)CC2)cc1Oc1cnc2[nH]ccc2c1 [compound 41, 2-((1H-pyrrolo[2,3-b]pyridin-5-yl)oxy)-4-(4-((6-(4-chlorophenyl)spiro[3.5]non-6-en-7-yl)methyl)piperazin-1-yl)-6-fluoro-N-((3-nitro-4-(((tetrahydro-2H-pyran-4-yl)methyl)amino)phenyl)sulfonyl)benzamide] | – | –
8 | 7.47 | 6.94 | COCCOCCNc1ccc(S(=O)(=O)NC(=O)c2ncc(N3CCN(CC4=C(c5ccc(Cl)cc5)CC5(CCC5)CC4)CC3)cc2Oc2cnc3[nH]ccc3c2)cc1[N+](=O)[O-] [compound 31, 3-((1H-pyrrolo[2,3-b]pyridin-5-yl)oxy)-5-(4-((6-(4-chlorophenyl)spiro[3.5]non-6-en-7-yl)methyl)piperazin-1-yl)-N-((4-((2-(2-methoxyethoxy)ethyl)amino)-3-nitrophenyl)sulfonyl)picolinamide] | – | –
9 | 7.10 | 6.90 | COCCOCCNc1ccc(S(=O)(=O)NC(=O)c2ccc(N3CCN(CC4=C(c5ccc(Cl)cc5)CC5(CCC5)CC4)CC3)c(F)c2Oc2cnc3[nH]ccc3c2)cc1[N+](=O)[O-] [compound 43, 2-((1H-pyrrolo[2,3-b]pyridin-5-yl)oxy)-4-(4-((6-(4-chlorophenyl)spiro[3.5]non-6-en-7-yl)methyl)piperazin-1-yl)-3-fluoro-N-((4-((2-(2-methoxyethoxy)ethyl)amino)-3-nitrophenyl)sulfonyl)benzamide] | – | –
10 | 7.70 | 7.23 | COCCOCCn1nc2cc(S(=O)(=O)NC(=O)c3ccc(N4CCN(CC5=C(c6ccc(Cl)cc6)CC6(CCC6)CC5)CC4)cc3Oc3cnc4[nH]ccc4c3)cc([N+](=O)[O-])c2c1F [compound 22, 2-((1H-pyrrolo[2,3-b]pyridin-5-yl)oxy)-4-(4-((6-(4-chlorophenyl)spiro[3.5]non-6-en-7-yl)methyl)piperazin-1-yl)-N-((3-fluoro-2-(2-(2-methoxyethoxy)ethyl)-4-nitro-2H-indazol-6-yl)sulfonyl)benzamide] | – | –
11 | 8.85 | 8.61 | O=C(NS(=O)(=O)c1cc(F)c(NC[C@H]2COCCO2)c([N+](=O)[O-])c1)c1ccc(N2CCN(CC3=C(c4ccc(Cl)cc4)CC4(CCC4)CC3)CC2)cc1Oc1cnc2[nH]ccc2c1 [Cpd. No. 40, (S)-N-((4-(((1,4-dioxan-2-yl)methyl)amino)-3-fluoro-5-nitrophenyl)sulfonyl)-2-((1H-pyrrolo[2,3-b]pyridin-5-yl)oxy)-4-(4-((6-(4-chlorophenyl)spiro[3.5]non-6-en-7-yl)methyl)piperazin-1-yl)benzamide] | – | –

Row | SMILES | pIC50 (RS4;11 cells) | pIC50 (MV4;11 cell line) | pIC50 (Bcl-2) | pIC50 (Bcl-xL)
12 | O=C(NS(=O)(=O)c1cc([N+](=O)[O-])c2cn(CC3CCOCC3)nc2c1)c1ccc(N2CCN(CC3=C(c4ccc(Cl)cc4)CC4(CCC4)CC3)CC2)cc1Oc1cnc2[nH]ccc2c1 [compound 63, 2-((1H-pyrrolo[2,3-b]pyridin-5-yl)oxy)-4-(4-((6-(4-chlorophenyl)spiro[3.5]non-6-en-7-yl)methyl)piperazin-1-yl)-N-((4-nitro-2-((tetrahydro-2H-pyran-4-yl)methyl)-2H-indazol-6-yl)sulfonyl)benzamide] | 7.26 | – | 8.89 | 8.15
13 | O=C(NS(=O)(=O)c1cc([N+](=O)[O-])c2nn(CC3CCOCC3)cc2c1)c1ccc(N2CCN(CC3=C(c4ccc(Cl)cc4)CC4(CCC4)CC3)CC2)cc1Oc1cnc2[nH]ccc2c1 [compound 61, 2-((1H-pyrrolo[2,3-b]pyridin-5-yl)oxy)-4-(4-((6-(4-chlorophenyl)spiro[3.5]non-6-en-7-yl)methyl)piperazin-1-yl)-N-((7-nitro-2-((tetrahydro-2H-pyran-4-yl)methyl)-2H-indazol-5yl)sulfonyl)benzamide] | 7.37 | – | – | 7.88
14 | O=C(NS(=O)(=O)c1ccc(NCC2CCOCC2)c([N+](=O)[O-])c1)c1ccc(C2=CCN(CC3=C(c4ccc(Cl)cc4)CC4(CCC4)CC3)CC2)cc1Oc1cnc2[nH]ccc2c1 [compound 7, 2-((1H-pyrrolo[2,3-b]pyridin-5-yl)oxy)-4-(1-((6-(4-chlorophenyl)spiro[3.5]non-6-en-7-yl)methyl)-1,2,3,6-tetrahydropyridin-4-yl)-N-((3-nitro-4-(((tetrahydro-2H-pyran-4-yl)methyl)amino)phenyl)sulfonyl)benzamide] | 7.46 | – | – | 7.80
15 | O=C(NS(=O)(=O)c1cc([N+](=O)[O-])c2c(cnn2CC2CCOCC2)c1)c1ccc(N2CCN(CC3=C(c4ccc(Cl)cc4)CC4(CCC4)CC3)CC2)cc1Oc1cnc2[nH]ccc2c1 [compound 60, 2-((1H-pyrrolo[2,3-b]pyridin-5-yl)oxy)-4-(4-((6-(4-chlorophenyl)spiro[3.5]non-6-en-7-yl)methyl)piperazin-1-yl)-N-((7-nitro-1-((tetrahydro-2H-pyran-4-yl)methyl)-1H-indazol-5-yl)sulfonyl)benzamide] | 6.60 | – | – | 7.17
16 | O=C(NS(=O)(=O)c1cc([N+](=O)[O-])c2[nH]c(-c3ccncc3)nc2c1)c1ccc(N2CCN(CC3=C(c4ccc(Cl)cc4)CC4(CCC4)CC3)CC2)cc1Oc1cnc2[nH]ccc2c1 [compound 66, 2-((1H-pyrrolo[2,3-b]pyridin-5-yl)oxy)-4-(4-((6-(4-chlorophenyl)spiro[3.5]non-6-en-7 yl)methyl)piperazin-1-yl)-N-((7-nitro-2-(pyridin-4-yl)-1H-benzo[d]imidazol-5-yl)sulfonyl)benzamide] | 6.61 | < 3.00 | – | –
